We go through 2 compounds from publication PMC5826148, “Whole-Cell Screen of Fragment Library Identifies Gut Microbiota Metabolite Indole Propionic Acid as Antitubercular” (Antimicrobial Agents and Chemotherapy, 2018).

In brackets after ≈: the same amount, converted by molar mass. Where two headings read alike, the source gives them in different places.

The nature of data set [1]: Endogenous plasma levels of IPA in naive mice.
A further data set relates to mice. To be noted: 100 mg/kg oral on three consecutive days, monitored 7 days.
The nature of data set [2]: Cytotoxicity assay, HepG2 cells (CellTiter 96 AQueous One). To be noted: human, HepG2 cells.
The subject of a further data set is M. bovis BCG Pasteur. Nature of the data set: microbe, parasite or virus in culture. In kind it is cell-based.
The subject of another data set is M. avium. Briefly: Spectrum of activity: M. avium growth inhibition. Conditions: 4 days, read-out: Antibacterial activity (MIC50) M. avium. It counts as cell-based.
Data set [3] is described as follows: Cytotoxicity assay, THP-1 cells (CellTiter 96 AQueous One). To be noted: human.
Data set [4] relates to human red blood cells (RBCs). Briefly: Red blood cell lysis assay. To be noted: hemolysis.
Another data set relates to M. tuberculosis. Briefly: Growth inhibition in acidic medium (pH 6.2). It counts as cell-based, Mycobacterium tuberculosis. To be noted: pH 6.2, read-out: Activity (MIC50) in acidic medium (pH 6.2).
Data set [5] relates to M. tuberculosis H37Rv. Nature of the data set: Mouse model of acute M. tuberculosis infection.
The subject of the next data set is Escherichia coli. Briefly: Spectrum of activity: E. coli growth inhibition. In kind it is cell-based. To be noted: LB medium, overnight, read-out: Antibacterial activity (MIC50) E. coli.
For data set [6], the system named is M. tuberculosis H37Rv. Nature of the data set: M. tuberculosis growth inhibition dose-response (MIC50), turbidity readout. In kind it is cell-based, Mycobacterium tuberculosis. Conditions: H37Rv, 10 days, read-out: Antibacterial activity (MIC50) M. tuberculosis.
In the next data set the test system is M. abscessus. Briefly: Spectrum of activity: M. abscessus growth inhibition. It counts as cell-based. Conditions: 3 days, read-out: Antibacterial activity (MIC50) M. abscessus.
In the next data set the test system is M. smegmatis. Nature of the data set: Spectrum of activity: M. smegmatis growth inhibition. In kind it is cell-based. Conditions: 1 day, read-out: Antibacterial activity (MIC50) M. smegmatis.
A further data set has as its system Staphylococcus aureus. Briefly: Spectrum of activity: S. aureus growth inhibition. In kind it is cell-based. Conditions: LB medium, overnight, read-out: Antibacterial activity (MIC50) S. aureus.
Data set [7] has as its system M. tuberculosis H37Rv. Briefly: Bactericidal activity, CFU enumeration on agar after treatment. It counts as cell-based, Mycobacterium tuberculosis. To be noted: M. tuberculosis, 1 mM, log CFU/ml reduction from initial inoculum.
On the set-up of data set [8]: method as in PMID 24563545. To be noted: cited from earlier work.
Data set [9] can be described thus: Pharmacokinetic study in uninfected CD-1 mice. Conditions: for AUC(0-t) / Cmax: Ave +/- SD, n=3.
The test system of another data set is HepG2 cells. Briefly: Cytotoxicity assay, HepG2 cells (CellTiter 96 AQueous One). Conditions: read-out: Cytotoxicity HepG2 cells CC50; 24 h.
The subject of the next data set is THP-1 cells. Nature of the data set: Cytotoxicity assay, THP-1 cells (CellTiter 96 AQueous One). To be noted: read-out: Cytotoxicity THP-1 cells CC50; 24 h.
[10] abbreviates: Day 42, IPA 100 mg/kg, INH 25 mg/kg, oral gavage 6 days/week, 4 weeks.

For the compound `O=C(O)CCc1c[nH]c2ccccc12` [Fragment F1], the “Endogenous plasma level, Average” value in data set [1] (time 0.25 h) amounted to 589 ng/mL; in data set [1] (time 1 h), 514 ng/mL; in data set [1] (time 3 h), 455 ng/mL; in data set [1] (time 5 h), 404 ng/mL; in data set [1] (time 8 h), 629 ng/mL. In addition, in the data set with mice, the “Acute toxicity: behavior and gross pathology of major organs” value is on record as “None of the mice showed abnormal behavior”. The CC50 at 24 h in [2] and in data set [3] was over 1000 µM throughout. The MIC50 is 98 µM (≈ 18.5 µg/mL) with M. bovis BCG Pasteur (Mycobacterium tuberculosis variant bovis BCG, BCG, read-out: Antibacterial activity (MIC50) M. bovis BCG); 119 µM (≈ 22.5 µg/mL) in the data set on M. avium (Mycobacterium avium, 96 h); 62 µM (≈ 11.7 µg/mL) in the data set with M. tuberculosis (Mycobacterium tuberculosis); over 500 µM in the data set with Escherichia coli (Escherichia coli); 68 µM (≈ 12.9 µg/mL) in the data set on M. tuberculosis H37Rv [6] (Mycobacterium tuberculosis, 240 h); over 500 µM in the data set on M. abscessus (Mycobacteroides abscessus, 72 h). For the same compound, the MIC50 in the data set on M. smegmatis (Mycolicibacterium smegmatis, 24 h) was 477 µM (≈ 90.3 µg/mL); in the data set with Staphylococcus aureus (Staphylococcus aureus), over 500 µM. In addition, in [4], the “RBCs HC50” value is given as >1,000 μM. Also, in the data set on M. tuberculosis H37Rv [5] (100 mg/kg oral, 6 days/week for 4 weeks), the “reduction of bacterial load in the spleen versus untreated mice” value is 7 fold. The “adverse events or abnormal behavior over the course of drug treatment” value with M. tuberculosis H37Rv [5] (100 mg/kg, six consecutive days per week for 4 weeks, infected mice) is listed as “None of the animals showed signs of adverse events or abnormal behavior”. For the same compound, the “Lungs CFU log10, mean difference from drug-free control” value in the data set with M. tuberculosis H37Rv [5] (setting [10]) was -0.28 log10 CFU. Further, in the data set with M. tuberculosis H37Rv [5] (setting [10]), the “Spleen CFU log10, mean difference from drug-free control” value is on record as -0.82 log10 CFU. The log reduction at 1000 µM in the data set with M. tuberculosis H37Rv [7] (Mycobacterium tuberculosis, H37RV, read-out: Bactericidal activity (log reduction) at 1 mM) was found to be 1.76. For the same compound, the “logarithm of partition coefficient between n-octanol and water” value in data set [8] is 2.15. The “time plasma levels above the MIC50” value in [9] (100 mg/kg oral) was “more than 50 % of the dosing interval”. This compound also registered a Vd in data set [9] (CD-1, mouse, plasma, iv, 5 mg/kg) of 0.25 L/kg. Further, the AUC(0-t) in data set [9] (CD-1, mouse, plasma, iv, 5 mg/kg, AUC[0-8], Intravenous 5 mg/kg) amounted to 72 ± 3 µg·h/mL; in data set [9] (CD-1, mouse, plasma, po, 100 mg/kg, AUC[0-8], Oral 100 mg/kg in CMC (suspension)), 315 ± 88 µg·h/mL; in [9] (CD-1, mouse, plasma, po, 100 mg/kg, AUC[0-8], Oral 100 mg/kg in PEG (solution)), 312 ± 59 µg·h/mL; in data set [9] (CD-1, mouse, plasma, po, 100 mg/kg, AUC[0-24], Oral 100 mg/kg in CMC (suspension)), 442 ± 271 µg·h/mL; in data set [9] (CD-1, mouse, plasma, po, 100 mg/kg, AUC[0-24], Oral 100 mg/kg in PEG (solution)), 471 ± 129 µg·h/mL. Also, the Cmax worked out at 67 ± 28 µg/mL in data set [9] (CD-1, mouse, plasma, po, 100 mg/kg, Oral 100 mg/kg in CMC (suspension)) and 118 ± 10 µg/mL in data set [9] (CD-1, mouse, plasma, po, 100 mg/kg, Oral 100 mg/kg in PEG (solution)). Also, the bioavailability in data set [9] (CD-1, mouse, plasma, po, 100 mg/kg, F (oral bioavailability), Oral 100 mg/kg in CMC (suspension)) is 30.8%; in data set [9] (CD-1, mouse, plasma, po, 100 mg/kg, F (oral bioavailability), Oral 100 mg/kg in PEG (solution)) it was 32.9%; in data set [9] (CD-1, mouse, plasma, po, 100 mg/kg, oral bioavailability, 100 mg/kg oral), 30 to 33%.
Take `NC(=S)COc1cccc(Cl)c1` [Fragment F13, 2-(3-Chlorophenoxy) ethanethioamide]: the 50% cytotoxic concentration (CC50) in the data set on HepG2 cells turned out to be 467 µM; in the data set with THP-1 cells it was 656 µM. Moreover, in the data set on M. bovis BCG Pasteur, the “Antibacterial activity (MIC50) M. bovis BCG” value is over 500 µM. Also, the MIC50 in the data set on M. avium is listed as 387 µM (≈ 78 µg/mL); with M. tuberculosis it was 75 µM (≈ 15.1 µg/mL); in the data set on Escherichia coli it was over 500 µM; in the data set with M. tuberculosis H37Rv [6], 211 µM (≈ 42.6 µg/mL); in the data set with M. abscessus, 289 µM (≈ 58.3 µg/mL); in the data set on M. smegmatis, 409 µM (≈ 82.5 µg/mL). Moreover, the MIC50 with Staphylococcus aureus is listed as over 500 µM. In addition, the “RBCs HC50” value in data set [4] turned out to be 904 µM. The “Bactericidal activity (log reduction) at 1 mM” value with M. tuberculosis H37Rv [7] came out at 0.90 log reduction.
